Results: ChEMBL document CHEMBL3352151, “In vitro and in vivo antibacterial evaluation and mechanistic study of ornithine based small cationic lipopeptides against antibiotic resistant clinical isolates” (Eur J Med Chem, 2014)
In brackets after ≈: the same amount, converted by molar mass. Square brackets hold non-standard residues; d marks the D form. Peptide text beside a SMILES is read from it. * marks the point of attachment. Palmitoyl = CCCCCCCCCCCCCCCC(=O)*; Myristoyl = CCCCCCCCCCCCCC(=O)*; Orn = NCCC[CH](N)C(=O)O

Columns and labels:
[1] = Cytotoxicity against human HaCaT cells assessed as cell viability at 100 ug/ml after 18 hrs by MTT assay; assay type: cell-based; details: read-out: Activity
Pseudomonas aeruginosa [2] = test: Antibacterial activity against clinical isolates of Pseudomonas aeruginosa PGI/DML02084 after overnight incubation by microdilution broth assay; assay type: functional
Staphylococcus aureus [3] = test: Antibacterial activity against clinical isolates of methicillin-resistant Staphylococcus aureus PGI/DML03149 after overnight incubation by microdilution broth assay; assay type: functional
Staphylococcus aureus [4] = test: Antibacterial activity against clinical isolates of Staphylococcus aureus PGI/DML03054 after overnight incubation by microdilution broth assay; assay type: functional
Enterococcus faecalis [5] = test: Antibacterial activity against clinical isolates of gentamicin-resistant Enterococcus faecalis GMCH/R-Gen011 after overnight incubation by microdilution broth assay; assay type: functional
Klebsiella pneumoniae [6] = test: Antibacterial activity against clinical isolates of Klebsiella pneumoniae GMCH/B0127 after overnight incubation by microdilution broth assay; assay type: functional
Escherichia coli [7] = test: Antibacterial activity against clinical isolates of imipenem-resistant Escherichia coli PGI/DML02292 after overnight incubation by microdilution broth assay; assay type: functional
Pseudomonas aeruginosa [8] = test: Antibacterial activity against clinical isolates of streptomycin-resistant Pseudomonas aeruginosa PGI/DML01991 after overnight incubation by microdilution broth assay; assay type: functional
Acinetobacter baumannii [9] = test: Antibacterial activity against clinical isolates of Acinetobacter baumannii GMCH/B0083 after overnight incubation by microdilution broth assay; assay type: functional
Escherichia coli [10] = test: Antibacterial activity against clinical isolates of Escherichia coli PGI/DML02250 after overnight incubation by microdilution broth assay; assay type: functional
Enterococcus faecium [11] = test: Antibacterial activity against clinical isolates of penicillin-resistant Enterococcus faecium GMCH/R-Pen003 after overnight incubation by microdilution broth assay; assay type: functional
Enterococcus faecalis [12] = test: Antibacterial activity against clinical isolates of Enterococcus faecalis GMCH/B0091 after overnight incubation by microdilution broth assay; assay type: functional
[13] = system: Staphylococcus epidermidis; test: Antibacterial activity against clinical isolates of ampicillin-resistant Staphylococcus epidermidis GMCH/R-Amp008 after overnight incubation by microdilution broth assay; assay type: functional
[14] = system: Staphylococcus epidermidis; test: Antibacterial activity against clinical isolates of Staphylococcus epidermidis GMCH/B0057 after overnight incubation by microdilution broth assay; assay type: functional
Streptococcus pneumoniae [15] = test: Antibacterial activity against clinical isolates of Streptococcus pneumoniae PGI/DML02468 after overnight incubation by microdilution broth assay; assay type: functional
Klebsiella pneumoniae [16] = test: Antibacterial activity against clinical isolates of kanamycin-resistant Klebsiella pneumoniae GMCH/R-Kan006 after overnight incubation by microdilution broth assay; assay type: functional
Enterococcus faecium [17] = test: Antibacterial activity against clinical isolates of Enterococcus faecium GMCH/B0102 after overnight incubation by microdilution broth assay; assay type: functional
Acinetobacter baumannii [18] = test: Antibacterial activity against clinical isolates of imipenem-resistant Acinetobacter baumannii GMCH/R-Imi003 after overnight incubation by microdilution broth assay; assay type: functional
Haemophilus influenzae [19] = test: Antibacterial activity against clinical isolates of ciprofloxacin-resistant Haemophilus influenzae PGI/DML01744 after overnight incubation by microdilution broth assay; assay type: functional
[20] = Cytotoxicity against human HaCaT cells assessed as cell viability at 500 ug/ml after 18 hrs by MTT assay; assay type: cell-based; details: read-out: Activity
Streptococcus pneumoniae [21] = test: Antibacterial activity against clinical isolates of erythromycin-resistant Streptococcus pneumoniae PGI/DML02213 after overnight incubation by microdilution broth assay; assay type: functional
Haemophilus influenzae [22] = test: Antibacterial activity against clinical isolates of Haemophilus influenzae PGI/DML01751 after overnight incubation by microdilution broth assay; assay type: functional

Row | SMILES | viability at 18 h, 100 ug/ml [1] [%] | MIC (Pseudomonas aeruginosa [2]) [µg/mL] | MIC (Staphylococcus aureus [3]) [µg/mL] | MIC (Staphylococcus aureus [4]) [µg/mL] | MIC (Enterococcus faecalis [5]) [µg/mL] | MIC (Klebsiella pneumoniae [6]) [µg/mL] | MIC (Escherichia coli [7]) [µg/mL] | MIC (Pseudomonas aeruginosa [8]) [µg/mL] | MIC (Acinetobacter baumannii [9]) [µg/mL] | MIC (Escherichia coli [10]) [µg/mL] | MIC (Enterococcus faecium [11]) [µg/mL] | MIC (Enterococcus faecalis [12]) [µg/mL] | MIC [13] [µg/mL] | MIC [14] [µg/mL] | MIC (Streptococcus pneumoniae [15]) [µg/mL] | MIC (Klebsiella pneumoniae [16]) [µg/mL] | MIC (Enterococcus faecium [17]) [µg/mL] | MIC (Acinetobacter baumannii [18]) [µg/mL] | MIC (Haemophilus influenzae [19]) [µg/mL] | viability at 18 h, 500 ug/ml [20] [%] | other results
1 | CCCCCCCCCCCCCCCCCC(=O)NC(CCCN)C(=O)NC(CCCN)C(=O)NC(CCCN)C(N)=O (stereo not given) | > 80 | 1.5 (≈ 2.4 µM) | 5.5 (≈ 8.79 µM) | 6.2 (≈ 9.91 µM) | 6.25 (≈ 9.98 µM) | 3.5 (≈ 5.59 µM) | 7.5 (≈ 12 µM) | 4.5 (≈ 7.19 µM) | 6.5 (≈ 10.4 µM) | 10 (≈ 16 µM) | 7.5 (≈ 12 µM) | 2.5 (≈ 3.99 µM) | 5 (≈ 7.99 µM) | 7.5 (≈ 12 µM) | 2.5 (≈ 3.99 µM) | 7.5 (≈ 12 µM) | 4.5 (≈ 7.19 µM) | 4.5 (≈ 7.19 µM) | 7.5 (≈ 12 µM) | > 80 | MIC (Streptococcus pneumoniae [21]): 5 µg/mL (≈ 7.99 µM); MIC (Haemophilus influenzae [22]): 10 µg/mL (≈ 16 µM)
2 | CCCCCCCCCCCCCCCC(=O)NC(CCCN)C(=O)NC(CCCN)C(=O)NC(CCCN)C(=O)NC(CCCN)C(=O)NC(CCCN)C(N)=O (stereo not given) (Palmitoyl-[Orn][Orn][Orn][Orn][Orn]-NH2; configuration not given here) | > 80 | 2 (≈ 2.42 µM) | 10 (≈ 12.1 µM) | 7.5 (≈ 9.08 µM) | 12.5 (≈ 15.1 µM) | 2.5 (≈ 3.03 µM) | 5 (≈ 6.05 µM) | 6.5 (≈ 7.87 µM) | 12.5 (≈ 15.1 µM) | 1.5 (≈ 1.82 µM) | 7.5 (≈ 9.08 µM) | 2 (≈ 2.42 µM) | 7.5 (≈ 9.08 µM) | 3.1 (≈ 3.75 µM) | 3.1 (≈ 3.75 µM) | 10 (≈ 12.1 µM) | 3 (≈ 3.63 µM) | 9.5 (≈ 11.5 µM) | 12.5 (≈ 15.1 µM) | > 80 | MIC (Streptococcus pneumoniae [21]): 7.5 µg/mL (≈ 9.08 µM); MIC (Haemophilus influenzae [22]): 10 µg/mL (≈ 12.1 µM)
3 | CCCCCCCCCCCCCC(=O)NC(CCCN)C(=O)NC(CCCN)C(=O)NC(CCCN)C(=O)NC(CCCN)C(N)=O (stereo not given) (Myristoyl-[Orn][Orn][Orn][Orn]-NH2; configuration not given here) | > 80 | 3.1 (≈ 4.53 µM) | 5 (≈ 7.31 µM) | 4.5 (≈ 6.58 µM) | 3.5 (≈ 5.12 µM) | 4.5 (≈ 6.58 µM) | 10 (≈ 14.6 µM) | 3 (≈ 4.39 µM) | 5 (≈ 7.31 µM) | 2.5 (≈ 3.66 µM) | 5.5 (≈ 8.04 µM) | 2 (≈ 2.92 µM) | 4.25 (≈ 6.21 µM) | 3.5 (≈ 5.12 µM) | 5.5 (≈ 8.04 µM) | 6.25 (≈ 9.14 µM) | 4 (≈ 5.85 µM) | 5.5 (≈ 8.04 µM) | 10 (≈ 14.6 µM) | > 80 | MIC (Streptococcus pneumoniae [21]): 7.5 µg/mL (≈ 11 µM); MIC (Haemophilus influenzae [22]): 12.5 µg/mL (≈ 18.3 µM)
4 | CCCCCCCCCCCCCCCC(=O)NC(CCCN)C(=O)NC(CCCN)C(=O)NC(CCCN)C(=O)NC(CCCN)C(N)=O (stereo not given) (Palmitoyl-[Orn][Orn][Orn][Orn]-NH2; configuration not given here) | > 80 | 3 (≈ 4.21 µM) | 4.5 (≈ 6.32 µM) | 3.1 (≈ 4.35 µM) | 7.5 (≈ 10.5 µM) | 2 (≈ 2.81 µM) | 12.5 (≈ 17.6 µM) | 6.25 (≈ 8.78 µM) | 6.5 (≈ 9.13 µM) | 2 (≈ 2.81 µM) | 3.5 (≈ 4.92 µM) | 3.5 (≈ 4.92 µM) | 2 (≈ 2.81 µM) | 2.5 (≈ 3.51 µM) | 2.5 (≈ 3.51 µM) | 5.5 (≈ 7.72 µM) | 3.5 (≈ 4.92 µM) | 10 (≈ 14 µM) | 12.5 (≈ 17.6 µM) | > 80 | MIC (Streptococcus pneumoniae [21]): 10.5 µg/mL (≈ 14.7 µM); MIC (Haemophilus influenzae [22]): 7.5 µg/mL (≈ 10.5 µM)
5 | CCCCCCCCCCCCCCCC(=O)NC(CCCN)C(=O)NC(CCCN)C(=O)NC(CCCN)C(N)=O (stereo not given) | > 80 | 2.5 (≈ 4.18 µM) | 4.5 (≈ 7.53 µM) | 5 (≈ 8.36 µM) | 5 (≈ 8.36 µM) | 3.5 (≈ 5.85 µM) | 6.25 (≈ 10.5 µM) | 3.1 (≈ 5.18 µM) | 4 (≈ 6.69 µM) | 5.5 (≈ 9.2 µM) | 5 (≈ 8.36 µM) | 3.1 (≈ 5.18 µM) | 5.5 (≈ 9.2 µM) | 4 (≈ 6.69 µM) | 3.1 (≈ 5.18 µM) | 3.1 (≈ 5.18 µM) | 3 (≈ 5.02 µM) | 5.5 (≈ 9.2 µM) | 5.5 (≈ 9.2 µM) | > 80 | MIC (Streptococcus pneumoniae [21]): 3.5 µg/mL (≈ 5.85 µM); MIC (Haemophilus influenzae [22]): 5 µg/mL (≈ 8.36 µM)
